Assay results taken from US20040147720A1, “Novel guasonine triphosphate-binding protein -coupled receptor place 6002312, its gene and production and use of the same” (priority 2001, published 2004).

Key:
[1] = tested on: HEK293 cells (Mock); settings: HEK293 cells (Mock) with pcDNA3.1(−), not expressing PLACE6002312; [^3H]-histamine 0, 40, 80, 160 nM; room temperature 1 hr; FIG. 7
Experimental: (§1) The ligand-binding assay can serve as a direct method of receptor pharmacology, and is applicable to high-throughput systems. […] First, human embryonic kidney 293 (HEK293) cells were plated on a 10-cm cell culture dish at the cell density of 1×10^6 cells/dish, and incubated in a humidified incubator under 5% CO2 at 37° C. for 24 hr. Then, 10 μg/dish of pcDNA3.1(−)-PLACE6002312 plasmid was transfected by the calcium phosphate method (Mol. Pharm. (1997)-51: 171). After the culturing was continued for 14 hr, the medium was changed with fresh D-MEM containing 10% FBS, and the cells were incubated for another 2 days. After the culturing had completed, the cells were washed with PBS(−), and then suspended in FBS-free D-MEM at the cell density of 1×10^6 cells/ml. The cell suspension were aliquoted (50 μl/well) into flat-bottomed 96-well plate (Sumitomo Bakelite Co.) pre-siliconized with Siliconize L-25 (Fuji Systems). 50-μl aliquots of D-MEM were added to each well, and then radio-labeled [^3H]-histamine was added thereto at the final concentrations of 0, 40, 80, and 160 nM. The plate was incubated at room temperature for 1 hr. Assays for the non-specific binding of [^3H]-histamine were carried out using D-MEM to which unlabeled histamine had been added previously at the final concentration of 1×10^−5 M. […]

[2] = target: PLACE6002312 polypeptide (Homo sapiens, UniProt Q8TDU6); settings: HEK293 cells with pcDNA3.1(−)-PLACE6002312; [^3H]-histamine 0, 40, 80, 160 nM; room temperature 1 hr; non-specific binding with 1×10^−5 M unlabeled histamine; FIG. 7
Sequence of PLACE6002312 polypeptide (Q8TDU6 whole entry): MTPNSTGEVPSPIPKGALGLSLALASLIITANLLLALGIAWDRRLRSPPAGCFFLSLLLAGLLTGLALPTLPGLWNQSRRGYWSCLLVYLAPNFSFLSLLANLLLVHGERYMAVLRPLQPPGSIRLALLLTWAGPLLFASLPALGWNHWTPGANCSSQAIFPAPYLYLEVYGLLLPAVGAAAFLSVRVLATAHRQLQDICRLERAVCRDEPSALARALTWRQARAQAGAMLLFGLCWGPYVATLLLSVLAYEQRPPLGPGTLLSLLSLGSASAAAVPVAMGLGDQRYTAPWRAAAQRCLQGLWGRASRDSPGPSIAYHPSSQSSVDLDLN
Experimental: as §1

- specific binding to [^3H]-histamine (total binding minus non-specific binding) [2]: detected
Structure (SMILES): NCCc1c[nH]cn1 [histamine]
- specific binding to [^3H]-histamine (total binding minus non-specific binding) [1]: undetectable
